Assays:
[1] = tested on: hindlimb ischemia (ligation of femoral artery); assay: mouse hindlimb ischemia model; format: in vivo, BALB/c mice; details: intramuscular injection into quadriceps muscle
Procedure: As mentioned above, the sustained-release composition can be applied for promoting angiogenesis in ischemic tissues. Thus, the effect of such the use will be further evaluated through a mouse hindlimb ischemia model and utilizes the sustained-release composition of the 1st embodiment of the present disclosure. In the present disclosure, all animal experimentation processes are performed according to an animal care and use guideline promulgated by Council of Agriculture, Executive Yuan, R.O.C. (Taiwan). In particular, BALB/c mice are served as a platform for developing the animal model. In the beginning, for each of the mice, 2 L/min of oxygen and 4% inhaled isoflurane are provided into an anesthesia box to introduce a general anesthesia in the mouse under room temperature, and the mouse is intubated and supplied by 3% isoflurane continuously. After a medial thigh area of the mouse is cut by a scalpel, the mouse is subjected by ligation of upper end and lower end of femoral artery to simulate hindlimb ischemia.
Subsequently, an intramuscular injection is performed into the quadriceps muscle adjacent to the proximal ligation site. The abovementioned mice can be divided into four groups according to the treatment. In details, the mice of Group 1 are only injected with physiological saline. […] The mice of Group 4 are injected with the sustained-release composition of the 1st embodiment. […]

[2] = cited from earlier work

Compound: C=CCSSSCC=C [free diallyl trisulfide, diallyl trisulfide]
- hindlimb kept or lost after fourteen days [1]: lose its hindlimb
- muscle atrophy of the hindlimb ([1]; fourteen days): slighter than that of the mice of Group 1 and Group 3
- half-life in aqueous solution [2]: around 15 minutes
